The values that follow come from patent US11066363B2, “Substituted 6,11-dihydro-5H-benzo[B]carbazoles as inhibitors of ALK and SRPK” (Dana-Farber Cancer Institute, Inc., priority 2015, dated 2021).

Read-outs that look alike come from different tables or passages of the source. A value given as a limit tells only on which side of the number the result lay.

One series deals with SRPK2 (Homo sapiens (Human), UniProt P78362). The experiment in a line: SRPK2 inhibitory activity. Format: biochemical.
Series [1] deals with DFCI76 (L1152R) cells (NSCLC). Type of series: cell-based. The conditions noted are these: read-out: IC50 Tumor Cell Line DFCI76 (L1152R).
In the next series the target is SRPK1 (Homo sapiens (Human), UniProt Q96SB4). The experiment in a line: SRPK1 inhibitory activity. Format: biochemical.
The test system of another series is H3122 cells (NSCLC). Format: cell-based. The conditions noted are these: Homo sapiens.
Series [2] has as its target CD74-ROS transduced Ba/F3 cells (Homo sapiens, UniProt P08922). The experiment in a line: Ba/F3 proliferation assay. Format: cell-based. The conditions noted are these: read-out: IC50 Ba/F3 CD74-ROS; Table 6.
Excerpt: (§1) The MTS assay is a colorimetric method for determining the number of viable cells that is based on the bioreduction of MTS by cells to a formazan product that is soluble in cell culture medium and can be detected spectrophotometrically. […] All experimental points were set up in six wells and all experiments were repeated at least three times. […] The curves were fitted using a non-linear regression model with a sigmoidal dose response.
For series [3], the target named is del19EGFR transduced Ba/F3 cells (Homo sapiens, UniProt P00533, cells depend on it, form not given). The experiment in a line: Ba/F3 proliferation assay. Format: cell-based. The conditions noted are these: read-out: IC50 Ba/F3 del19EGFR; Table 6.
Series [4] relates to mutant EGFR PC9 cell line. The settings on record: in words.
Description: Cell viability was evaluated using CellTiter-Glo Luminescent Cell Viability Assay (Promega) following manufacturer's instruction. IC50 values were calculated by nonlinear regression (variable slope) using GraphPad Prism 5 software. Each experiment was repeated for at least twice.
Series [5] deals with EML4-ALK C1156Y transformed Ba/F3 cells (Homo sapiens, UniProt Q9UM73, C1156Y, cells depend on it). Nature of the series: Ba/F3 dose escalation MTS viability assay. Type of series: cell-based. The conditions noted are these: 72 hours.
Excerpt: as §1
(§2) Untransduced Ba/F3 control was used as a cytotoxicity control.
Series [6] has as its target EML4-ALK S1206Y transformed Ba/F3 cells (Homo sapiens, UniProt Q9UM73, S1206Y, cells depend on it). Nature of the series: Ba/F3 dose escalation MTS viability assay. Type of series: cell-based. The conditions noted are these: 72 hours. (In general: Formazan colour is commonly taken as a measure of viable cells.)
Excerpt: as §1, §2
In series [7] the target is EML4-ALK G1202R transformed Ba/F3 cells (Homo sapiens, UniProt Q9UM73, G1202R, cells depend on it). Nature of the series: Ba/F3 dose escalation MTS viability assay. Format: cell-based. The conditions noted are these: 72 hours.
Excerpt: as §1, §2
For series [8], the system named is EML4-ALK wt transformed Ba/F3 cells. Nature of the series: Ba/F3 single point inhibition assay (MTS). Format: cell-based. The conditions noted are these: single dose 1 μM, 72 hours.
Excerpt: as §1
Series [9] concerns the target EML4-ALK L1152R transformed Ba/F3 cells (Homo sapiens, UniProt Q9UM73, L1152R, cells depend on it). Nature of the series: Ba/F3 dose escalation MTS viability assay. Type of series: cell-based. The settings on record: 72 hours.
Excerpt: as §1, §2
The target of series [10] is EML4-ALK G1269A transformed Ba/F3 cells (Homo sapiens, UniProt Q9UM73, G1269A, cells depend on it). The experiment in a line: Ba/F3 dose escalation MTS viability assay. Type of series: cell-based. The conditions noted are these: 72 hours.
Excerpt: as §1, §2
The target in series [11] is EML4-ALK L1196M transformed Ba/F3 cells (Homo sapiens, UniProt Q9UM73, L1196M, cells depend on it). The experiment in a line: Ba/F3 dose escalation MTS viability assay. The settings on record: read-out: IC50 L1196M, 72 hours.
Excerpt: as §1, §2
For series [12], the target named is EML4-ALK^WT transformed Ba/F3 cells (Homo sapiens, UniProt Q9UM73). The experiment in a line: Ba/F3 dose escalation MTS viability assay. The conditions noted are these: read-out: IC50 wt, 72 hours.
Excerpt: as §1, §2
Series [13] deals with EML4-ALK^G1202R transformed Ba/F3 cells. The experiment in a line: Ba/F3 single point inhibition assay (MTS). Type of series: cell-based. The conditions noted are these: single dose 1 μM, 72 hours.
Excerpt: as §1
For a further series, the target named is panel of 456 kinases. Nature of the series: KINOMESCAN kinase selectivity profiling. The settings on record: screened at 1 μM. Type of series: binding.
For series [14] the following is noted: mouse, in vivo, iv, 2 mg/kg, 8 h.

Regarding `CCc1cc2c(cc1N1CCC(N3CCOCC3)CC1)C(C)(C)c1[nH]c3cc(C#N)ccc3c1C2=O` [Alectinib], the IC50 on SRPK2 stood at 28.2 nM; in series [1] it was 0.026 ± 0.027 µM; on SRPK1, 11 nM; in the series with H3122 cells (NSCLC) (NCI-H3122, read-out: IC50 Tumor Cell Line H3122), 0.007 ± 0.004 µM.

On to `Cc1cc(Nc2ncc(Cl)c(Nc3ccccc3S(=O)(=O)C(C)C)n2)c(OC(C)C)cc1C1CCNCC1` [Ceritinib], for which the IC50 in the series on H3122 cells (NSCLC) (NCI-H3122, Table 6, read-out: IC50 Tumor Cell Line H3122) was 0.013 ± 0.005 µM.

Regarding `CCc1cc2c(cc1-c1cnn(CC(=O)N(C)C)c1)C(C)(C)c1[nH]c3cc(C#N)ccc3c1C2=O` [Compound 6, 2-(4-(3-cyano-9-ethyl-6,6-dimethyl-11-oxo-6,11-dihydro-5H-benzo[b]carbazol-8-yl)-1H-pyrazol-1-yl)-N,N-dimethylacetamide], the IC50 in series [2] stood at 0.678 ± 0.109 µM; in series [3], 0.281 ± 0.001 µM. Moreover, the “inhibition of mutant EGFR PC9 cell line” value in series [4] is listed as “not inhibited”.

In the case of `CCc1cc2c(cc1-c1cnoc1)C(C)(C)c1[nH]c3cc(C#N)ccc3c1C2=O` [Compound 10, 9-ethyl-8-(isoxazol-4-yl)-6,6-dimethyl-11-oxo-6,11-dihydro-5H-benzo[b]carbazole-3-carbonitrile], the IC50 in series [5] is 0.116 µM; on SRPK2, 14.5 nM; in [6], 0.728 µM; in series [7], 0.08 µM; in [9], 0.345 µM; in series [10] it was 0.186 µM. Moreover, the IC50 against SRPK1 stood at 5.09 nM; in [11], 0.634 µM; in series [12], 0.059 µM. In addition, in series [8], the “Percent viability of untreated control, wt” value (“Percent viability … wt” below) is given as 2%. For the same compound, the “Percent viability of untreated control, G1202R” value (“Percent viability … G1202R” for short) in series [13] was found to be 3%.

On to `CCc1cc2c(cc1-c1cnn[nH]1)C(C)(C)c1[nH]c3cc(C#N)ccc3c1C2=O` [Compound 13, 9-ethyl-6,6-dimethyl-11-oxo-8-(1H-1,2,3-triazol-5-yl)-6,11-dihydro-5H-benzo[b]carbazole-3-carbonitrile], for which the IC50 in series [5] is 0.177 µM; against SRPK2, 7.46 nM; in series [6] it was 1.61 µM; in series [7], 0.214 µM; in series [9], 0.345 µM; in [10] it was 0.256 µM. The IC50 against SRPK1 came to 0.884 nM; in series [11] it was 0.629 µM; in series [12] it was 0.115 µM. In addition, the “Percent viability … wt” value in series [8] was 6%. Further, the “Percent viability … G1202R” value in series [13] amounted to 7%.

Consider `CCc1cc2c(cc1-c1cncnc1)C(C)(C)c1[nH]c3cc(C#N)ccc3c1C2=O` [Compound 16, 9-ethyl-6,6-dimethyl-11-oxo-8-(pyrimidin-5-yl)-6,11-dihydro-5H-benzo[b]carbazole-3-carbonitrile], for which the IC50 on SRPK2 stood at 12.5 nM; at SRPK1, 2.53 nM. The “Percent viability … wt” value in [8] turned out to be 3%. Besides, the “Percent viability … G1202R” value in series [13] is 4%.

Take `CCc1cc2c(cc1N1CCC(N(C)C)CC1)C(C)(C)c1[nH]c3cc(C#N)ccc3c1C2=O` [Compound 17, 8-(4-(dimethylamino)piperidin-1-yl)-9-ethyl-6,6-dimethyl-11-oxo-6,11-dihydro-5H-benzo[b]carbazole-3-carbonitrile]: the IC50 in series [5] is 0.002 µM; in series [6], 0.002 µM; in [7], 0.478 µM; in [9], 0.695 µM; in series [10], 0.003 µM; on SRPK1, above 1000 nM. In addition, the IC50 in series [11] worked out at 0.01 µM; in series [12], 0.002 µM. For the same compound, in series [8], the “Percent viability … wt” value is 2%. Besides, the “Percent viability … G1202R” value in series [13] is 9%.

In the case of `CCc1cc2c(cc1N1CCN(C)CC1)C(C)(C)c1[nH]c3cc(C#N)ccc3c1C2=O` [Compound 19, 9-ethyl-6,6-dimethyl-8-(4-methylpiperazin-1-yl)-11-oxo-6,11-dihydro-5H-benzo[b]carbazole-3-carbonitrile], the IC50 at SRPK2 stood at 8.57 nM; against SRPK1, 2.66 nM. The “Percent viability … wt” value in series [8] came to 0.1%. Further, the “Percent viability … G1202R” value in series [13] is on record as 0.1%.

For `CCc1cc2c(cc1-c1cnn(CCN(C)C)c1)C(C)(C)c1[nH]c3cc(C#N)ccc3c1C2=O` [Compound 31, 8-(1-(2-(dimethylamino)ethyl)-1H-pyrazol-4-yl)-9-ethyl-6,6-dimethyl-11-oxo-6,11-dihydro-5H-benzo[b]carbazole-3-carbonitrile], the IC50 is 0.024 µM in [5]; 6.6 nM on SRPK2; 0.006 µM in [6]; 0.008 µM in [7]; 0.548 µM in series [9]; 0.011 µM in [10]. Besides, the IC50 came out at 1.91 nM on SRPK1, 0.08 µM in series [11] and 0.002 µM in [12]. In [8], the “Percent viability … wt” value is 1%. Further, the “Percent viability … G1202R” value in series [13] is reported as 1%.

In the case of `CCc1cc2c(cc1-c1cnn(CCCN(C)C)c1)C(C)(C)c1[nH]c3cc(C#N)ccc3c1C2=O` [Compound 32, 8-(1-(3-(dimethylamino)propyl)-1H-pyrazol-4-yl)-9-ethyl-6,6-dimethyl-11-oxo-6,11-dihydro-5H-benzo[b]carbazole-3-carbonitrile], the KINOMESCAN interactions mapped at panel of 456 kinases worked out at 39. Also, in series [8], the “Percent viability … wt” value is reported as 0%. The compound also had a Conc. in series [14] of 0.08 µM. In series [13], the “Percent viability … G1202R” value is listed as 0%.

Consider `CCc1cc2c(cc1-c1cnn(C(=O)N(C)C)c1)C(C)(C)c1[nH]c3cc(C#N)ccc3c1C2=O` [Compound 36, 4-(3-cyano-9-ethyl-6,6-dimethyl-11-oxo-6,11-dihydro-5H-benzo[b]carbazol-8-yl)-N,N-dimethyl-1H-pyrazole-1-carboxamide], for which the IC50 was found to be 23.6 nM at SRPK2 and 4.75 nM at SRPK1. In series [8], the “Percent viability … wt” value is reported as 0%. Also, in series [13], the “Percent viability … G1202R” value was 0%.
